In PMC11945475, “Nasal Administration of a Nanoemulsion Based on Methyl Ferulate and Eugenol Encapsulated in Chitosan Oleate: Uptake Studies in the Central Nervous System” (Pharmaceutics, 2025):

Conditions: male, Sprague-Dawley, rat, in vivo
Protocol: Fer-Me and eugenol were nasally co-administered as loaded in CS-OA NE to evaluate their concentration–time profiles in male Sprague-Dawley rats’ (200–250 g body weight; Charles River laboratories, Calco, Italy) bloodstream and CSF. The results were compared with those obtained by the rat intravenous administrations of Fer-Me (10 mg/kg; present study), and 20 mg/kg of eugenol. The sample size (4 rats/group) has been chosen based on our previous studies. The experimental procedures were approved by the Italian Ministry of Health and were performed in accordance with the European Communities Council Directive of September 2010 (2010/63/EU). According to the ARRIVE guidelines, all possible efforts were made to minimize animal pain and discomfort and to reduce the number of experimental subjects.

C=CCc1ccc(O)c(OC)c1 [eugenol]
dose-normalized CSF AUC of eugenol relative to Fer-Me: about 16 times
